Reference: ChEMBL document CHEMBL1201862, “PubChem BioAssay data set” (2004)
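Compound exposure: 48 hours, 5 concentrations, 96-well plates. GI50 marks 50% less growth.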 Active and inactive are the calls of the source. Cut-off read from the data, not from the text of the source: active = GI50 up to about 1.1 µM and inactive = higher.

Columns and labels:
Assay in all cases: NCI-60 cell line screen, 48 h
MOLT-4 = system: MOLT-4
MDA-MB-435 = system: MDA-MB-435
SW-620 = system: SW-620
UACC-257 = system: UACC-257
LOX IMVI = system: LOX IMVI
NCI-H23 = system: NCI-H23
RXF 393 = system: RXF 393
CAKI-1 = system: CAKI-1
UO-31 = system: UO-31
HT-29 = system: HT-29
SNB-19 = system: SNB-19
SF-295 = system: SF-295
K562 = system: K562
NCI-H226 = system: NCI-H226
NCI/ADR-RES = system: NCI/ADR-RES
SF-268 = system: SF-268
U-251 = system: U-251
MDA-N = system: MDA-N
OVCAR-8 = system: OVCAR-8
SK-OV-3 = system: SK-OV-3

Measured: GI50

Cn1c(=O)c(C(=O)Nc2nc(C34CC5CC(CC(C5)C3)C4)cs2)c(O)c2ccccc21
inactive: MOLT-4 > 10 µM | MDA-MB-435 > 100 µM | SW-620 > 100 µM | UACC-257 > 100 µM | LOX IMVI > 100 µM | NCI-H23 > 100 µM | RXF 393 22.2 µM | CAKI-1 73.5 µM | UO-31 > 100 µM | HT-29 > 100 µM | SNB-19 35.6 µM | SF-295 > 100 µM | K562 40 µM | NCI-H226 52.8 µM | NCI/ADR-RES 13.2 µM | SF-268 > 100 µM | U-251 57.5 µM | MDA-N > 100 µM | OVCAR-8 > 100 µM

CNc1ccc(OC)cc1S(=O)(=O)c1ccccc1[N+](=O)[O-]
inactive: MOLT-4 27 µM | MDA-MB-435 > 100 µM | SW-620 > 100 µM | LOX IMVI > 100 µM | NCI-H23 > 100 µM | RXF 393 > 100 µM | UO-31 > 100 µM | HT-29 > 100 µM | SNB-19 > 100 µM | SF-295 > 100 µM | K562 43.2 µM | NCI-H226 > 100 µM | NCI/ADR-RES 69.8 µM | SF-268 > 100 µM | U-251 > 100 µM | MDA-N > 100 µM | SK-OV-3 > 100 µM | OVCAR-8 > 100 µM

O=C(O)C(Cc1cc(I)c(O)c(I)c1)C1CCCCC1 (configuration not stated)
inactive: MOLT-4 28.4 µM | MDA-MB-435 60.8 µM | SW-620 58.9 µM | UACC-257 45.3 µM | LOX IMVI 34 µM | NCI-H23 24 µM | RXF 393 34.2 µM | CAKI-1 30.6 µM | UO-31 45.7 µM | HT-29 30.8 µM | SNB-19 35.6 µM | SF-295 35.6 µM | K562 66.2 µM | NCI-H226 61.5 µM | NCI/ADR-RES 37.4 µM | SF-268 36.2 µM | U-251 22.3 µM | MDA-N 43.5 µM | OVCAR-8 38.6 µM

O=C(NCc1ccccc1)c1c(O)nc2ccccc2c1O
inactive: MOLT-4 > 100 µM | MDA-MB-435 > 100 µM | SW-620 > 100 µM | UACC-257 > 100 µM | LOX IMVI > 100 µM | NCI-H23 > 100 µM | RXF 393 > 100 µM | CAKI-1 > 100 µM | UO-31 > 100 µM | HT-29 > 100 µM | SNB-19 > 100 µM | SF-295 > 100 µM | K562 > 100 µM | NCI-H226 > 100 µM | NCI/ADR-RES > 100 µM | SF-268 > 100 µM | U-251 > 100 µM | MDA-N > 100 µM | OVCAR-8 > 100 µM

Cc1ccc(-c2c(C#N)c(N)[nH]c(=S)c2C#N)cc1
inactive: MOLT-4 16.6 µM | MDA-MB-435 23.3 µM | SW-620 13.6 µM | UACC-257 34.5 µM | LOX IMVI 42.2 µM | NCI-H23 39.7 µM | RXF 393 18.7 µM | CAKI-1 49.8 µM | UO-31 40.3 µM | HT-29 48.2 µM | SNB-19 77.1 µM | SF-295 32.8 µM | K562 21.1 µM | NCI-H226 23.9 µM | NCI/ADR-RES 31.7 µM | SF-268 31.9 µM | U-251 49.1 µM | MDA-N 18.5 µM | OVCAR-8 46.3 µM

O=C(O)CCc1ccc2c(c1)C(=O)CC2
inactive: MOLT-4 > 100 µM | MDA-MB-435 > 100 µM | SW-620 > 100 µM | UACC-257 > 100 µM | LOX IMVI > 100 µM | NCI-H23 > 100 µM | RXF 393 > 100 µM | UO-31 > 100 µM | HT-29 > 100 µM | SNB-19 > 100 µM | SF-295 > 100 µM | K562 > 100 µM | NCI-H226 > 100 µM | NCI/ADR-RES > 100 µM | SF-268 > 100 µM | U-251 > 100 µM | MDA-N > 100 µM | SK-OV-3 > 100 µM | OVCAR-8 > 100 µM

COC(=O)CCc1ccc2c(c1)CC1(Cc3ccccc3C1)C2
inactive: MOLT-4 77.1 µM | MDA-MB-435 > 100 µM | UACC-257 > 100 µM | LOX IMVI > 100 µM | NCI-H23 > 100 µM | RXF 393 > 100 µM | UO-31 > 100 µM | HT-29 > 100 µM | SF-295 > 100 µM | K562 > 100 µM | NCI-H226 > 100 µM | NCI/ADR-RES > 100 µM | U-251 > 100 µM | MDA-N > 100 µM | SK-OV-3 > 100 µM | OVCAR-8 > 100 µM

CCOC(=O)c1nc2ccccc2nc1Oc1ccc(F)cc1
inactive: MDA-MB-435 > 100 µM | SW-620 > 100 µM | UACC-257 > 100 µM | LOX IMVI > 100 µM | RXF 393 46.8 µM | UO-31 > 100 µM | HT-29 > 100 µM | SNB-19 > 100 µM | SF-295 70.6 µM | K562 > 100 µM | NCI-H226 > 100 µM | NCI/ADR-RES > 100 µM | SF-268 55.8 µM | U-251 69.2 µM | MDA-N > 100 µM | SK-OV-3 > 100 µM | OVCAR-8 > 100 µM

COC12C=CC(C=C1C#N)CC2.COC12C=CC(CC1)CC2=O (configuration not stated)
inactive: MOLT-4 > 100 µM | MDA-MB-435 > 100 µM | SW-620 > 100 µM | UACC-257 > 100 µM | NCI-H23 > 100 µM | RXF 393 > 100 µM | CAKI-1 > 100 µM | UO-31 > 100 µM | HT-29 > 100 µM | SNB-19 > 100 µM | SF-295 > 100 µM | K562 > 100 µM | NCI-H226 > 100 µM | NCI/ADR-RES > 100 µM | SF-268 > 100 µM | U-251 > 100 µM | MDA-N > 100 µM | SK-OV-3 > 100 µM | OVCAR-8 > 100 µM

CCOC(=O)NC(C(C(=O)OCC)C(=O)OCC)(C(F)(F)F)C(F)(F)F
inactive: MOLT-4 > 100 µM | MDA-MB-435 > 100 µM | SW-620 > 100 µM | UACC-257 > 100 µM | LOX IMVI > 100 µM | NCI-H23 > 100 µM | RXF 393 > 100 µM | CAKI-1 > 100 µM | UO-31 > 100 µM | HT-29 > 100 µM | SNB-19 > 100 µM | SF-295 > 100 µM | K562 > 100 µM | NCI-H226 > 100 µM | NCI/ADR-RES > 100 µM | SF-268 > 100 µM | U-251 > 100 µM | MDA-N > 100 µM | OVCAR-8 > 100 µM

CC1=NN(C(=O)CC(=O)Nc2ccccc2Cl)C(=O)C1/N=N/c1ccc(C(=O)O)cc1 (configuration not stated)
inactive: MOLT-4 > 100 µM | MDA-MB-435 > 100 µM | SW-620 > 100 µM | UACC-257 > 100 µM | LOX IMVI 65.6 µM | NCI-H23 > 100 µM | RXF 393 > 100 µM | CAKI-1 > 100 µM | UO-31 62.8 µM | HT-29 7.73 µM | SNB-19 > 100 µM | SF-295 > 100 µM | K562 > 100 µM | NCI/ADR-RES > 100 µM | SF-268 > 100 µM | U-251 > 100 µM | MDA-N > 100 µM | OVCAR-8 > 100 µM
